The values that follow come from PubChem BioAssay (NCI).

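Values below derive from 48-hour exposures of cells grown in 96-well plates, with endpoints linearly interpolated between the two concentrations bracketing the appropriate inhibition level. TGI denotes the concentration required for complete inhibition of growth.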 Some results are limits rather than exact numbers.

Holding throughout (experiment): growth of human tumour cells (NCI), 48 h
The test system of assay [1] is NCI/ADR-RES ovarian.
The subject of assay [2] is SK-MEL-28 melanoma.
The subject of assay [3] is NCI-H522 lung.
Assay [4] deals with 786-0 renal.
The test system of assay [5] is RPMI-8226 leukemia.
The subject of assay [6] is ACHN renal.
The subject of assay [7] is HOP-62 NSCLC.

As to `CC(=O)c1ccc2c3c1O[C@H]1c4[nH]c5ccccc5c4C[C@@]4(O)[C@@H](C2)N(CC2CC2)CC[C@]314`, the TGI was 26.6 µM in assay [1]; more than 100 µM in assay [2]; 35.3 µM in assay [3]; 28.3 µM in assay [4]; 45.1 µM in assay [5]; 30.9 µM in assay [6]. This compound also showed a TGI in assay [7] of 36.5 µM.
Consider `O=c1c2cc(I)ccc2nc(SCc2nnco2)n1Cc1ccccc1`, for which the TGI in assay [1], in assay [2], in assay [3], in assay [4], in assay [5] and in assay [6] was more than 100 µM each time. This compound came in with a TGI in assay [7] of more than 100 µM.
Regarding `C[C@]12CC[C@H](O)CC1=CC[C@@H]1[C@@H]2CC[C@]2(C)C(=O)/C(=C/c3ccc([N+](=O)[O-])cc3)C[C@@H]12`, the TGI in assay [1] is 61.1 µM; in assay [2], 74.7 µM; in assay [3], 30.6 µM; in assay [4], 10.8 µM; in assay [5] it was more than 100 µM; in assay [6], 33.4 µM. For the same compound, the TGI in assay [7] was found to be 17 µM.
Consider `CCOC(=O)C(NC(=O)CC)(Nc1ccc(S(=O)(=O)Nc2ccc(OC)nn2)cc1)C(F)(F)F` (stereo unspecified), for which the TGI in assay [1], in assay [2], in assay [3], in assay [4], in assay [5] and in assay [6] was more than 100 µM in each case. In assay [7], this compound yielded a TGI of more than 100 µM.
For `CCC(=O)N1C(=O)C(CC)(CC)C(=O)N1C(=O)CC`, the TGI in assay [1], in assay [2], in assay [3], in assay [4], in assay [5] and in assay [6] was more than 100 µM throughout. Moreover, the TGI in assay [7] is more than 100 µM.
`CCN(CC)C1Oc2cc3c(cc2C(c2cccc(OC)c2O)C1C)OCO3` (stereo unspecified): the TGI in assay [1] was found to be 53.8 µM; in assay [2], 42.2 µM; in assay [3] it was 7.3 µM; in assay [4], 26.3 µM; in assay [5], 13.6 µM; in assay [6] it was 40.4 µM. Besides, the TGI in assay [7] was found to be 21.3 µM.
On to `COc1cc2[nH]c(=O)c3cc(C)cc4c(Cl)nc(c1OC)c2c43`, for which the TGI in assay [1], in assay [2], in assay [3], in assay [4], in assay [5] and in assay [6] was more than 100 µM each time. For the same compound, in assay [7], the TGI came out at 75.7 µM.
With `COc1cc(C2c3cc(OC)c(OC)c(O)c3C(=O)C3CCC(=O)N32)cc(OC)c1OC` (stereo unspecified), the TGI was more than 100 µM in assay [1]; more than 100 µM in assay [2]; 77.6 µM in assay [3]; more than 100 µM in assay [4]; more than 100 µM in assay [5]; more than 100 µM in assay [6]. In assay [7], this compound registered a TGI of more than 100 µM.
With `CN(C)C=NCC(O)c1ccccc1` (stereo unspecified), the TGI in assay [1], in assay [2], in assay [3], in assay [4], in assay [5] and in assay [6] was more than 100 µM throughout. Besides, in assay [7], the TGI is more than 100 µM.
Take `O=C(N[C@H]1CCC[C@H]1C(=O)Nc1ccc(C(F)(F)F)cc1)OCc1ccccc1`: the TGI in assay [1], in assay [2], in assay [3], in assay [4], in assay [5] and in assay [6] was more than 100 µM in each case. This compound showed a TGI in assay [7] of more than 100 µM.
As to `COc1ccc(N2N=NN(C(C)C)/C2=C(/Cl)c2nnnn2-c2ccc(OC)cc2)cc1`, the TGI in assay [1] is 61.2 µM; in assay [2], 29.7 µM; in assay [3], 5.48 µM; in assay [4] it was 7.06 µM; in assay [5] it was more than 61.2 µM; in assay [6] it was 30.7 µM. The compound further had a TGI in assay [7] of 37.1 µM.
Turning to `Cc1ccc2c(=O)cc(Cc3csc4ccccc34)[nH]c2n1`, the TGI in assay [1] is 52.4 µM; in assay [2], more than 100 µM; in assay [3], 53.3 µM; in assay [4], more than 100 µM; in assay [5], more than 100 µM; in assay [7], more than 100 µM.
As to `COc1cc(/C=C/C(=N\NC(=S)NN)c2sc(NNC(C)=O)nc2C)ccc1O`, the TGI in assay [1], in assay [2], in assay [3], in assay [4], in assay [5] and in assay [6] was more than 100 µM each time. The TGI in assay [7] is more than 100 µM.
With `CC(C)=CCC[C@@H](C)C1=CC(=O)C(C)=C(O)C1=O`, the TGI in assay [1] turned out to be 11.3 µM; in assay [2] it was 31 µM; in assay [3], 2.78 µM; in assay [4] it was 17.5 µM; in assay [5], 5.64 µM; in assay [6], 10.8 µM. This compound displayed a TGI in assay [7] of 25.7 µM.
Consider `Cc1ccc(N=C2SC(=NN(C)C)SC2=Nc2ccc(C)cc2)cc1`, for which the TGI in assay [1], in assay [2], in assay [3], in assay [4], in assay [5] and in assay [6] was more than 100 µM in each case. In assay [7], this compound registered a TGI of more than 100 µM.
Take `COc1ccc(Cn2c3ccc([N+](=O)[O-])cc3c(=O)n2Cc2ccccn2)cc1`: the TGI in assay [1], in assay [2], in assay [3], in assay [4], in assay [5] and in assay [6] was more than 100 µM in each case. The TGI in assay [7] is more than 100 µM.
Consider `COc1ccc(-c2nc(-c3cnccn3)n(Cc3ccccc3)n2)cc1`, for which the TGI in assay [1], in assay [2], in assay [3], in assay [4], in assay [5] and in assay [7] was more than 100 µM throughout.
As to `COc1cc(O)cc(O)c1C(=O)CC(Cl)(Cl)Cl`, the TGI in assay [1], in assay [2], in assay [3], in assay [4], in assay [5] and in assay [6] was more than 100 µM throughout. In assay [7], this compound gave a TGI of more than 100 µM.
On to `S=C(N/N=C(\C(=N/NC(=S)N1CCCCC1)c1ccccn1)c1ccccn1)N1CCCCC1`, for which the TGI in assay [1] is more than 100 µM; in assay [2], more than 100 µM; in assay [3], more than 100 µM; in assay [4], more than 100 µM; in assay [5], more than 100 µM; in assay [6] it was 91.6 µM. The compound also gave a TGI in assay [7] of more than 100 µM.
